Consider 4 molecules from patent US20240343681A1, “MOLECULES HAVING PESTICIDAL UTILITY AND INTERMEDIATES AND PROCESSES RELATED THERETO” (priority 2021, published 2024).

One series concerns target pests. The experiment in a line: Screening of separated stereoisomer peaks against target pests. The settings on record: SFC-separated R,R and S,S isomers (F107 and F108). It counts as in vivo. On the procedure:
trans-rac-N-(3-Amino-4-chlorophenyl)-2,2-dichloro-3-(4-fluoro-3-(trifluoromethyl)phenyl)cyclopropane-1-carboxamide (C20, 1.0 g, 2.27 mmol) was added to a solution of 2,6-difluoronicotinic acid (0.36 g, 2.27 mmol) in toluene (25 mL). Pyridine (0.72 mL, 9.05 mmol) was added dropwise, and 2,4,6-tripropyl-1,3,5,2,4,6-trioxatriphosphinane 2,4,6-trioxide as a 50% solution in ethyl acetate (5.8 mL, 9.05 mmol) was added at room temperature. The reaction mixture was warmed to 110° C. and stirred for 16 hours, cooled to room temperature, and concentrated under reduced pressure. The residue was diluted with water (80 mL) and was extracted with ethyl acetate (2×80 mL). The combined organic phases were washed with saturated aqueous sodium chloride, dried over anhydrous sodium sulfate, and filtered, and the filtrate was concentrated under reduced pressure.

Series [1] has as its system Beet Armyworm (Spodoptera exigua, LAPHEG) second instar larva. The experiment in a line: Bioassay on beet armyworm (BAW), 128-well diet tray assay. Type of series: in vivo. Conditions: 50 μg/cm^2 on artificial diet, 25° C., five days. The procedure, abridged: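 Test molecule in 90:10 acetone–water applied at 50 μg/cm^2 onto 1 mL artificial diet and dried; one second-instar larva per well, eight wells. Held 5 days at 25 °C, 14:10 light–dark; percent mortality averaged over the eight wells.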

The test system of series [2] is Yellow Fever Mosquito (Aedes aegypti, AEDSAE) larvae. Nature of the series: Bioassay on yellow fever mosquito (YFM), 96-well plate larval assay. The settings on record: 4000 ppm (master plate solution), about 1 day-old larvae, 3 days. Type of series: in vivo.

What is called melting point is the temperature, or range, at which the solid turns liquid. In turn, `O=C(Nc1cc(NC(=O)C2C(c3cc(Cl)cc(Cl)c3)C2(Cl)Cl)ccc1Cl)c1cc(C(F)(F)F)cc(C(F)(F)F)c1` (racemic) came in with a melting point of 109 to 113 °C.
As for `O=C(Nc1cc(NC(=O)C2C(c3cc(Cl)cc(Cl)c3)C2(Cl)Cl)ccc1Cl)c1cccc(=O)[nH]1` (racemic), the melting point lay within 312 to 316 °C.
For `O=C(Nc1cc(NC(=O)[C@H]2[C@H](c3ccc(F)c(C(F)(F)F)c3)C2(Cl)Cl)ccc1Cl)c1ccc(F)nc1F` (single isomer, unassigned) [F107], in the series with target pests, the “efficacy against target pests, Peak-2 versus Peak-1” value was “significantly greater than Peak-1”.
As to `O=C(Nc1cc(NC(=O)[C@H]2[C@H](c3ccc(F)c(C(F)(F)F)c3)C2(Cl)Cl)ccc1Cl)c1ccc(NC(=O)C(F)F)cc1F` (racemic) [F111, trans-rac-N-(2-Chloro-5-(2,2-dichloro-3-(4-fluoro-3-(trifluoromethyl)phenyl)cyclopropane-1-carboxamido)phenyl)-4-(2,2-difluoroacetamido)-2-fluorobenzamide], in series [1], the “activity against BAW (percent mortality, averaged over eight wells)” value was “exhibited activity”. Also, in series [2], the “activity against YFM (scored based on mortality)” value was “exhibited activity”.
